Reference: patent US9770446B2, “Piperidine urea derivatives” (MERCK PATENT GMBH, priority 2013, dated 2017)

Assays:
[1] = target: T1, GST-tagged Tnks-1 (1023-1327 aa) (Homo sapiens, UniProt O95271); assay: TNKS1 activity ELISA (autoparsylation assay); format: biochemical
T1 construct: GST-tagged Tnks-1 (1023-1327 aa, prepared in-house); made in house
Method: (§1) Description of the TNKS1 and TNKS2 ELISA Assay
(§2) Biochemical Activity Testing of TNKS 1 and 2: Activity ELISA (Autoparsylation Assay)
(§3) For analysis of autoparsylation activity of TNKS 1 and 2 an activity ELISA iss performed: In the first step GST tagged TNKS is captured on a Glutathione coated plate. Then the activity assay with biotinylated NAD is performed in the absence/presence of the compounds. During the enzymatic reaction GST tagged TNKS transfers biotinylated ADP-ribose to itself from biotinylated NAD as co-substrate. For the detection streptavidin-HRP conjugate is added that binds to the biotinylated TNKS and is thereby captured to the plates. The amount of biotinylated resp. autoparsylated TNKS is detected with a luminescence substrate for HRP. The level of the luminescence signal correlates directly with the amount of autoparsylated TNKS and therefore with activity of TNKS.
(§4) The activity ELISA is performed in 384 well Glutathione coated microtiter plates (Express capture Glutathione coated plate, Biocat, Heidelberg, Germany). The plates are pre-equilibrated with PBS. Then the plates are incubated with 50 μl 20 ng/well GST-tagged Tnks-1 (1023-1327 aa, prepared in-house), respectively GST-tagged Tnks-2 (873-1166 aa, prepared in-house) in assay buffer (50 mM HEPES, 4 mM Mg-chloride, 0.05% Pluronic F-68, 2 mM DTT, pH 7.7) overnight at 4° C. The plates are washed 3 times with PBS-Tween-20. The wells are blocked by incubation at room temperature for 20 minutes with 50 μl blocking buffer (PBS, 0.05% Tween-20, 0.5% BSA). Afterwards the plates are washed 3 times with PBS-Tween-20. The enzymatic reaction is performed in 50 μl reaction solution (50 mM HEPES, 4 mM Mg-chloride, 0.05% Pluronic F-68, 1.4 mM DTT, 0.5% DMSO, pH 7.7) with 10 μM bio-NAD (Biolog, Life science Inst., Bremen, Germany) as co-substrate in the absence or presence of the test compound (10 dilution concentrations) for 1 hour at 30° C. The reaction is stopped by 3 times washing with PBS-Tween20. For the detection 50 μl of 20 ng/μl Streptavidin, HRP conjugate (MoBiTec, Göttingen, Germany) in PBS/0.05% Tween-20/0.01% BSA are added and the plates are incubated for 30 minutes at room temperature. After three times washing with PBS-Tween-20 50 μl of SuperSignal ELISA Femto Maximum sensitivity substrate solution (ThermoFisherScientific (Pierce), Bonn, Germany) are added. Following a 1 minute incubation at room temperature luminescence signals are measured with an Envision multimode reader (Perkin Elmer LAS Germany GmbH) at 700 nm. The full value used is the inhibitor-free reaction. The pharmacological zero value used is XAV-939 (Tocris) in a final concentration of 5 μM. The inhibitory values (IC50) are determined using either the program Symyx Assay Explorer® or Condosseo® from GeneData.

Tankyrase = assay: Cellular inhibition of Tankyrase: Axin2 level in DLD1 cells (Luminex); format: cell-based; conditions: 24 hours, Axin2 increase, read-out: EC50 [M] TNKS cellular assay
Method: Measurement of Cellular Inhibition of Tankyrase
Since Tankyrases have been described to modulate cellular level of Axin2 (Huang et al., 2009; Nature) the increase of Axin2 level is used as read-out for determination of cellular inhibition of Tankyrases in a Luminex based assay.
Cells of the colon carcinoma cell line DLD1 are plated in 96 well plates with 1.5×10^4 cells per well. Next day, cells are treated with a serial dilution of test compound in seven steps as triplicates with a final DMSO concentration of 0.3%. After 24 hours, cells are lysed in lysis buffer (20 mM Tris/HCl pH 8.0, 150 mM NaCl, 1% NP40, 10% Glycerol) and lysates are cleared by centrifugation through a 96 well filter plate (0.65 μm). Axin2 protein is isolated from cell lysates by incubation with a monoclonal anti-Axin2 antibody (R&D Systems #MAB6078) that is bound to fluorescent carboxybeads. Then, bound Axin2 is specifically detected with a polyclonal anti-Axin2 antibody (Cell Signaling #2151) and an appropriate PE-fluorescent secondary antibody. The amount of isolated Axin2 protein is determined in a Luminex^200 machine (Luminex Corporation) according to the manufacturer's instruction by counting 100 events per well. Inhibition of Tankyrase by test compounds results in higher levels of Axin2 which directly correlates with an increase of detectable fluorescence. As controls cells are treated with solvent alone (neutral control) and with a Tankyrase reference inhibitor IWR-2 (3E-06 M) which refers as control for maximum increase of Axin2. For analysis, the obtained data are normalized against the untreated solvent control and fitted for determination of the EC50 values using the Assay Explorer software (Accelrys).

His-tagged Parp-1 = target: T2, His-tagged Parp-1 (Homo sapiens, UniProt P09874); assay: PARP-1 autoparsylation HTRF assay; format: biochemical
T2 construct: purchased Enzo Life Sciences GmbH, Lörrach, Germany
T2 sequence (P09874 whole entry): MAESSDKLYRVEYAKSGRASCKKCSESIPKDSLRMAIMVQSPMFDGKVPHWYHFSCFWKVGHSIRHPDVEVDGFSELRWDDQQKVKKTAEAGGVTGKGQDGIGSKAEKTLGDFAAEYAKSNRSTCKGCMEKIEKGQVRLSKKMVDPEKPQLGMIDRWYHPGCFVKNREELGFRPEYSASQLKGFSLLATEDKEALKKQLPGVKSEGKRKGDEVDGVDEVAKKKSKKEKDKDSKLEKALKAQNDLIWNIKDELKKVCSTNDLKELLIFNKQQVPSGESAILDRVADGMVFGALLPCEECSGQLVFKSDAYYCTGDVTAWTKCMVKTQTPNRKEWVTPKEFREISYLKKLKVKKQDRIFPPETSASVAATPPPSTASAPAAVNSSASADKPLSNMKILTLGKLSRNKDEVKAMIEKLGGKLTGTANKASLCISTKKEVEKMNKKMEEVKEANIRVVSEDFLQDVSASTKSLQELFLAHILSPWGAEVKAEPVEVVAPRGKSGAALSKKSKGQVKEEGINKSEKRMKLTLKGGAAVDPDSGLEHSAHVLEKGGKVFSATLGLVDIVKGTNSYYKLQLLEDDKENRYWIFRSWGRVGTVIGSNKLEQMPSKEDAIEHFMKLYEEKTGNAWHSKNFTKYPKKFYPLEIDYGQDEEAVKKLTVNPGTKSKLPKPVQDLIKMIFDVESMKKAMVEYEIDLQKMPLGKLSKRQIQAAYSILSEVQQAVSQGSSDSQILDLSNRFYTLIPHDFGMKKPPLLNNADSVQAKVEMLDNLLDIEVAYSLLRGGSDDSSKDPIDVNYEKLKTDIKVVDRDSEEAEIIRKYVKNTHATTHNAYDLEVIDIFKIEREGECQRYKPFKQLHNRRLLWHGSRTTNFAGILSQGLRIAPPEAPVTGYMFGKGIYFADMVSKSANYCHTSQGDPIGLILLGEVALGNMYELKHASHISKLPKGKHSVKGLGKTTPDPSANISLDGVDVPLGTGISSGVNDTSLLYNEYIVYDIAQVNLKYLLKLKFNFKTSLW
Excerpt: Description of the PARP1 Assay
Biochemical Activity Testing of PARP-1: Autoparsylation Assay
The autoparsylation assay is run in two steps: the enzymatic reaction in which His-tagged Parp-1 transfers biotinylated ADP-ribose/ADP-ribose to itself from biotinylated NAD/NAD as co-substrate and the detection reaction where a time resolved FRET between cryptate labelled anti-His antibody bound to the His tag of the enzyme and Xlent® labelled-streptavidin bound the biotin-parsylation residue is analysed. The autoparsylation activity is detectable directly via the increase in HTRF signal.
The autoparsylation assay is performed as 384-well HTRF® (Cisbio, Codolet, France) assay format in Greiner low volume nb 384-well microtiter plates. 35 nM His-tagged Parp-1 (human, recombinant, Enzo Life Sciences GmbH, Lörrach, Germany) and a mixture of 125 nM bio-NAD (Biolog, Life science Inst., Bremen, Germany) and 800 nM NAD as co-substrate are incubated in a total volume of 6 μl (100 mM Tris/HCl, 4 mM Mg-chloride, 0.01% IGEPAL® CA630, 1 mM DTT, 0.5% DMSO, pH 8, 13 ng/μl activated DNA (BPS Bioscience, San Diego, US)) in the absence or presence of the test compound (10 dilution concentrations) for 150 min at 23° C. The reaction is stopped by the addition of 4 μl of the Stop/detection solution (70 nM SA-Xlent® (Cisbio, Codolet, France), 2.5 nM Anti-His-K® (Eu-labelled anti-His, Cisbio, Codolet, France) in 50 mM HEPES, 400 mM KF, 0.1% BSA, 20 mM EDTA, pH 7.0). After 1 h incubation at room temperature the HTRF iss measured with an Envision multimode reader (Perkin Elmer LAS Germany GmbH) at excitation wavelength 340 nm (laser mode) and emission wavelengths 615 nm and 665 nm. The ratio of the emission signals is determined. The full value used is the inhibitor-free reaction. The pharmacological zero value used is Olaparib (LClabs, Woburn, US) in a final concentration of 1 μM. The inhibitory values (IC50) are determined using either the program Symyx Assay Explorer® or Condosseo® from GeneData.

[2] = target: T3, GST-tagged Tnks-2 (873-1166 aa) (Homo sapiens, UniProt Q9H2K2); assay: TNKS2 activity ELISA (autoparsylation assay); format: biochemical
T3 construct: GST-tagged Tnks-2 (873-1166 aa, prepared in-house); made in house
T3 sequence (Q9H2K2 873-1166): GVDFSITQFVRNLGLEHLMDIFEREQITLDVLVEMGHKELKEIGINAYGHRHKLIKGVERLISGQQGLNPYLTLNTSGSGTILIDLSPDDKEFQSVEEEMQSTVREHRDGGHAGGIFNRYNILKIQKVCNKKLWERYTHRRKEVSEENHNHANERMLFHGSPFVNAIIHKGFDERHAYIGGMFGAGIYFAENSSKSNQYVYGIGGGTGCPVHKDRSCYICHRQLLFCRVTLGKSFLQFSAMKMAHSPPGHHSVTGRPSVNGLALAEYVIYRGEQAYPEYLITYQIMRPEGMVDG
Method: as §1, §2, §3, §4

[3] = target: T4, GST-tagged Tankyrase-1 (1023-1327 aa) (Homo sapiens, UniProt O95271); assay: Tankyrase 1 autoparsylation HTRF enzyme assay; format: biochemical; conditions: read-out: IC50 TNKS1 enzyme assay
T4 construct: GST-tagged Tankyrase-1 (1023-1327 aa)
T4 sequence (O95271 1023-1327): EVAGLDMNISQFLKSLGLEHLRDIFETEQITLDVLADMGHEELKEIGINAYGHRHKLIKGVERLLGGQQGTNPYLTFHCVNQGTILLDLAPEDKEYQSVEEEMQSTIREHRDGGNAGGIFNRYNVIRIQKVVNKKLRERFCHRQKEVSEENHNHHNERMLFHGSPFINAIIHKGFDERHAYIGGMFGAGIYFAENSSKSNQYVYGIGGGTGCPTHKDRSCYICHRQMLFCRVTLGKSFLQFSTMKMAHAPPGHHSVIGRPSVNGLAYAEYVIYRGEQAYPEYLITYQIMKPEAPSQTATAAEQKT
Method: (§5) Biochemical activity testing of Tankyrase 1 and 2: Autoparsylation assay
(§6) The autoparsylation assay is run in two steps: the enzymatic reaction in which GST-tagged Tankyrase-1, resp Tankyrase-2 transferred biotinylated ADP-ribose to itself from biotinylated NAD as co-substrate and the detection reaction where a time resolved FRET between cryptate labelled anti-GST bound to the GST tag of the enzyme and Xlent® labelled-streptavidin bound the biotin-parsylation residue is analysed. The autoparsylation activity was detectable directly via the increase in HTRF signal.
(§7) The autoparsylation assay is performed as 384-well HTRF® (Cisbio, Codolet, France) assay format in Greiner low volume nb 384-well microtiter plates and is used for high throughput screen. 250 nM GST-tagged Tankyrase-1 (1023-1327 aa), respectively about 250 nM GST-tagged Tankyrase-2 (873-1166 aa) and 5 μM bio-NAD (Biolog, Life science Inst., Bremen, Germany) as co-substrate are incubated in a total volume of 5 μl (50 mM HEPES, 4 mM Mg-chloride, 0.05% Pluronic F-68, 1.4 mM DTT, 0.5% DMSO, pH 7.7) in the absence or presence of the test compound (10 dilution concentrations) for 90 min at 30° C. The reaction is stopped by the addition of 1 μl 50 mM EDTA solution. 2 μl of the detection solution (1.6 μM SA-Xlent® (Cisbio, Codolet, France), 7.4 nM Anti-GST-K® (Eu-labelled anti-GST, Cisbio, Codolet, France) in 50 mM HEPES, 800 mM KF, 0.1% BSA, 20 mM EDTA, 0.1% CHAPS, pH 7.0) are added. After 1 h incubation at room temperature the HTRF is measured with an Envision multimode reader (Perkin Elmer LAS Germany GmbH) at excitation wavelength 340 nm (laser mode) and emission wavelengths 615 nm and 665 nm. The ratio of the emission signals is determined. The full value used is the inhibitor-free reaction. The pharmacological zero value used is XAV-939 (Tocris) in a final concentration of 5 μM. The inhibitory values (IC50) are determined using either the program Symyx Assay Explorer® or Condosseo® from GeneData.

[4] = target: T5, GST-tagged Tankyrase-2 (873-1166 aa) (Homo sapiens, UniProt Q9H2K2); assay: Tankyrase 2 autoparsylation HTRF enzyme assay; format: biochemical; conditions: read-out: IC50 TNKS2 enzyme assay
T5 construct: GST-tagged Tankyrase-2 (873-1166 aa)
T5 sequence (Q9H2K2 873-1166): as the sequence (Q9H2K2 873-1166) above
Method: as §5, §6, §7

T1 sequence (O95271 1023-1327): as the sequence (O95271 1023-1327) above

Row | SMILES | IC50 [1] | EC50 (Tankyrase) | IC50 (His-tagged Parp-1) | IC50 [2] | IC50 [3] | IC50 [4]
1 | COc1ccc(N(C)C(=O)N2CCC(C(=O)c3ccc(-c4cnn(CCN5CCCC5)c4)cc3)CC2)cc1 [Compound A35, 4-{4-[1-(2-pyrrolidin-1-yl-ethyl)-1H-pyrazol-4-yl]-benzoyl}-piperidine-1-carboxylic acid (4-methoxy-phenyl)-methyl-amide] | < 300 nM | < 3e-07 M | 3000 to 50000 nM | < 300 nM |  | 
2 | COc1cccc(C(=O)C2CCN(C(=O)N(C)c3ccc(OC)nc3)CC2)c1 [Compound A47, 4-(3-methoxybenzoyl)-N-(6-methoxy-3-pyridyl)-N-methyl-piperidine-1-carboxamide] | < 300 nM | 3e-07 to 3e-06 M |  | < 300 nM | 300 to 3000 nM | 300 to 3000 nM
3 | COc1ccc(N(C)C(=O)N2CCC(C(=O)c3ccc(F)cc3)CC2)cn1 [Compound A51, 4-(4-fluorobenzoyl)-N-(6-methoxy-3-pyridyl)-N-methyl-piperidine-1-carboxamide] | < 300 nM | 3e-07 to 3e-06 M |  | < 300 nM | 300 to 3000 nM | 300 to 3000 nM
4 | COc1ccc(C(=O)C2CCN(C(=O)N(C)c3ccc(OC)nc3)CC2)cc1 [Compound A49, 4-(4-methoxybenzoyl)-N-(6-methoxy-3-pyridyl)-N-methyl-piperidine-1-carboxamide] | < 300 nM | < 3e-07 M |  | < 300 nM | < 300 nM | 300 to 3000 nM
5 | COc1ccc(N(C)C(=O)N2CCC(C(=O)c3ccc(OC)c(C)c3)CC2)cc1 [Compound A23, 4-(4-methoxy-3-methyl-benzoyl)-piperidine-1-carboxylic acid (4-methoxy-phenyl)-methyl-amide] | < 300 nM | < 3e-07 M |  | < 300 nM | < 300 nM | 300 to 3000 nM
6 | O=C(c1ccccc1)C1CCN(C(=O)N2CCCc3ccccc32)CC1 [Compound A22, (4-benzoyl-piperidin-1-yl)-(3,4-dihydro-2H-quinolin-1-yl)-methanone] | 300 to 3000 nM | 3e-06 to 5e-05 M |  | 300 to 3000 nM | 3000 to 50000 nM | 3000 to 50000 nM
7 | COc1ccc(N(C)C(=O)N2CCC(C(=O)c3ccc(C)cc3)CC2)cn1 [Compound A46, N-(6-methoxy-3-pyridyl)-N-methyl-4-(4-methylbenzoyl)piperidine-1-carboxamide] | < 300 nM | 3e-07 to 3e-06 M |  | < 300 nM | 300 to 3000 nM | 300 to 3000 nM
8 | COc1ccc(N(C)C(=O)N2CCC(C(=O)c3cccc(C)c3)CC2)cn1 [Compound A45, N-(6-methoxy-3-pyridyl)-N-methyl-4-(3-methylbenzoyl)piperidine-1-carboxamide] | < 300 nM | < 3e-07 M |  | < 300 nM | 300 to 3000 nM | 300 to 3000 nM
9 | O=C(c1ccc(Cl)cc1)C1CCN(C(=O)N2CCc3ccccc32)CC1 [Compound A21, [4-(4-chloro-benzoyl)-piperidin-1-yl]-(2,3-dihydro-indol-1-yl)-methanone] | 300 to 3000 nM | 3e-06 to 5e-05 M |  | < 300 nM | 300 to 3000 nM | 300 to 3000 nM
10 | CN(C(=O)N1CCC(C(=O)c2ccccc2)CC1)c1cccc(C#N)c1 [Compound A10, 4-benzoyl-piperidine-1-carboxylic acid (3-cyano-phenyl)-methyl-amide] | 300 to 3000 nM | 3e-06 to 5e-05 M |  | < 300 nM | 300 to 3000 nM | 3000 to 50000 nM
